Reference: paper PMC11111035, “Lemon basil seed-derived peptide: Hydrolysis, purification, and its role as a pancreatic lipase inhibitor that reduces adipogenesis by downregulating SREBP-1c and PPAR-γ in 3T3-L1 adipocytes” (PLOS ONE, 2024)
Ends that are not written are not given here.

Legend:
[1] = test system: 3T3-L1 cells; experiment: MTT cell viability; assay type: cell-based; details: 72 h, mean ± SE (n = 3), ns
Description: Following incubation, each well received 10 μL of MTT solution (5 mg/mL), before a further 4 h of incubation at a temperature of 37°C. Then 100 μL of DMSO was added to dissolve the MTT-formazan crystals in the viable cells before measuring the absorbance at 540 nm.

[2] = biological target: T1, porcine pancreatic lipase (Sus scrofa, UniProt P00591); experiment: Lipase inhibitory activity (LI), pNPP substrate; assay type: biochemical; details: synthetic peptide, pH 7.0, 37°C, 30 min
T1 sequence (P00591 1-450): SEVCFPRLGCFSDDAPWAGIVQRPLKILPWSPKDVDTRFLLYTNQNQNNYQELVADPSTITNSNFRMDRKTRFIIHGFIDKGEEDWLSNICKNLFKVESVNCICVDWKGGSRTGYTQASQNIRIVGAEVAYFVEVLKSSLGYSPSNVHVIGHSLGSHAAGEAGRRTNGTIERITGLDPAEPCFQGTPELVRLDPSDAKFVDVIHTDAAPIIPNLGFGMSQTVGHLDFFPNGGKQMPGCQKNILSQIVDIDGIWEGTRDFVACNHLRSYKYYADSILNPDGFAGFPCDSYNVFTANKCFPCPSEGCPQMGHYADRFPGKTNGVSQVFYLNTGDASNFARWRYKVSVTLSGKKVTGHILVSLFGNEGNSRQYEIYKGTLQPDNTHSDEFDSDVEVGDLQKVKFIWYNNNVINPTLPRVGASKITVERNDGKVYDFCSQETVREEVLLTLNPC
Description: (§1) The determination of lipase inhibition was performed using a method with slight modifications as described by Ketprayoon et al.. The p-nitrophenyl palmitate (pNPP) was served as the substrate, with a solution containing 30 mg of pNPP dissolved in 10 mL of isopropanol. This pNPP solution was then emulsified by combining it with 90 mL of 50 mM Tris-HCl at pH 7.0, 20 μL of Triton X-100 and 100 mg of gum arabic. The assay was initiate the assay by incubating the porcine pancreatic lipase (0.5 mg/mL in 50 mM Tris‐HCl buffer, pH 7.0), pNPP solution and DLSH peptides at a temperature of 37°C for 30 min. Absorbance was then measured at 410 nm for p-nitrophenol with Orlistat employed as the positive control. […] LI=AN−AP×100/AN (3) in which AN indicates the absorbance of the negative control in the absence of the peptide, whereas AP indicates the absorbance of activity when the peptide is present.

[3] = biological target: T1, porcine pancreatic lipase; experiment: Kinetic study of lipase inhibition (Lineweaver-Burk, Dixon plot); assay type: biochemical; details: non-competitive, pNPP, 37°C, pH 7.0, 30 min, mean ± SE (n = 3), read-out: Inhibition constant (Ki)
Description: as §1
The inhibitory mechanism of the lipase inhibitor was investigated using the Lineweaver-Burk plot. […] The reaction mixtures were incubated under a temperature of 37°C and pH 7.0 for 30 min, while initial velocity rates were determined at different substrate concentrations (0.1, 0.2, 0.3, 0.4, and 0.5 mM). […] The Michaelis-Menten constant (Km) and maximum velocity (Vmax) for the lipase inhibition were determined by analyzing the intercepts on the x-axis and y-axis, respectively. […]

[4] = test system: lipase; details: cited from earlier work
Description: The Lineweaver-Burk plot was used to evaluated the inhibition mode of the […] peptide obtained from DLSH, and the outcome can be observed in Fig 6(A) (S6 Table). The plot of the inhibition activity was created by altering the concentration of the substrate while maintaining the peptide concentration at the same level throughout (0, 0.1, 0.3 and 0.5 mM). […] The peptide accordingly acted as a lipase inhibitor by taking the form o ...

[5] = test system: 3T3-L1 cells; details: cited from earlier work
Excerpt: Although we believe there have been no previous studies detailing the […] peptide, it can be considered as a suitable novel peptide capable of addressing the problem of obesity. The literature does contain references to peptides which act in a similar manner to affect preadipocytes during their initial proliferation. […] It was noted by Zhang et al. that th ...

[6] = test system: 3T3-L1 adipocytes; experiment: Intracellular lipid accumulation, Oil Red O staining; assay type: cell-based; details: simvastatin 10 μM (S); % of differentiated model (100%); mean ± SE
Description: On the first day, a modified assay proposed by Zhang et al. was carried out for the purpose of 3T3-L1 cells cell culture and differentiation, by initially seeding the 3T3-L1 preadipocyte cells in 6-well plates with a density of 1×10^5 cells per well and then culturing in DMEM with 10% FBS at a temperature of 37°C for 24 h in an atmosphere of 5% carbon dioxide. On the second day, adipocyte differentiation was performed by treating the 3T3-L1 cells with a differentiation medium comprising DMEM with 10% FBS, mixed with 0.5 mM 3-isobutyl-1-methylxanthine (IBMX), 1 μM dexamethasone, and 10 μg/mL insulin. This process took three days, whereupon on day 5 the original medium was removed and a new insulin medium, comprising DMEM with 10% FBS and 10 μg/mL insulin, was used to maintain adipocyte characteristics with a 3-day incubation period. […] Oil Red O staining was then used to evaluate the intracellular lipid accumulation of the mature 3T3-L1 adipocytes. This process required the cells to first be rinsed in PBS and then fixed for 1 h at room temperature with 10% formalin. […] It was then possible to evaluate the accumulation of lipids by dissolving in isopropanol (100%), and to measure the absorbance at 540 nm. The lipid accumulation was expressed as a percentage in comparison to the control.

[7] = test system: AMPK-α; experiment: Western blot AMPK-α expression; assay type: cell-based; details: GRSPDTHSG 0.25-1 mM or simvastatin 10 μM
Description: On the first day, a modified assay proposed by Zhang et al. was carried out for the purpose of 3T3-L1 cells cell culture and differentiation, by initially seeding the 3T3-L1 preadipocyte cells in 6-well plates with a density of 1×10^5 cells per well and then culturing in DMEM with 10% FBS at a temperature of 37°C for 24 h in an atmosphere of 5% carbon dioxide. On the second day, adipocyte differentiation was performed by treating the 3T3-L1 cells with a differentiation medium comprising DMEM with 10% FBS, mixed with 0.5 mM 3-isobutyl-1-methylxanthine (IBMX), 1 μM dexamethasone, and 10 μg/mL insulin. This process took three days, whereupon on day 5 the original medium was removed and a new insulin medium, comprising DMEM with 10% FBS and 10 μg/mL insulin, was used to maintain adipocyte characteristics with a 3-day incubation period. […] Once extracted, the proteins of equivalent concentration underwent separation on 12% sodium dodecyl sulfate-polyacrylamide gel electrophoresis (SDS-PAGE) before moving to polyvinylidene fluoride (PVDF) membranes (Millipore, Bedford, MA, USA). […] The membranes were then incubated overnight at a temperature of 4°C with the primary antibodies (PPAR-γ, AMPK-α, SREBP-1C and β-actin) diluted at 1:1000. […] The band intensity could then be measured using ImageJ software (version 1.53; National Institutes of Health, MD, USA). […]

Molecule: GRSPDTHSG
- Cell viability ([1]; 0.25 mM): 97.02 ± 4.65%
- Cell viability ([1]; 0.50 mM): 92.90 ± 1.60%
- Cell viability ([1]; 1.00 mM): 85.96 ± 2.05%
- IC50 [2]: 255 µM
- Ki [3]: 610 ± 90 µM

Molecule: glutathione
- Mode of lipase inhibition [4]: non-competitive inhibition

Molecule: CANPHELPNK [peptide from Spirulina platensis protein, pepsin digestion]
- Triglyceride accumulation [5]: potentially limiting triglyceride accumulation

Molecule: DIVDKIEI [peptide derived from extract of boiled tuna]
- 3T3-L1 preadipocyte differentiation [5]: effective in inhibiting 3T3-L1 preadipocyte differentiation
- Triglyceride levels and glucose uptake [5]: lowering both triglyceride levels and the uptake of glucose

Molecule: NPVWKRK [peptide from Spirulina platensis protein, pepsin digestion]
- Triglyceride accumulation [5]: potentially limiting triglyceride accumulation

Molecule: LLVVYPWTQR [synthetic decapeptide derived from C. pyenoidose]
- Intracellular lipid accumulation ([5]; 600 μg/mL, reduced): 27.91%

Molecule: GAGVGY [GAGVGY]
- Glucose transport and lipid metabolism [5]: enhance the transport of glucose and support the lipid metabolism in 3T3-L1 adipocytes

Molecule: CCC(C)(C)C(=O)O[C@H]1C[C@@H](C)C=C2C=C[C@H](C)[C@H](CC[C@@H]3C[C@@H](O)CC(=O)O3)[C@H]21 [Simvastatin, simvastatin]
- Lipid accumulation [6]: 51.66 ± 1.81%
- AMPK expression, in words [7]: AMPK expression level rose
